Laboratory results taken from patent US9723840B2 (SYNGENTA PARTICIPATIONS AG, priority 2013, dated 2017).

How the values were obtained:
Assay type in all cases: in vivo
Amaranthus retroflexus [1] = test: Pre-emergence herbicidal activity, AMARE; set-up: key: 5=total damage to plant; 0=no damage to plant; details: 1000 g/Ha, pre-emergence spray, evaluated after 13 days, scale 0-5
Protocol: (§1) Seeds of a variety of test species were sown in standard soil in pots. After cultivation for one day (pre-emergence) under controlled conditions in a glasshouse (at 24/16° C., day/night; 14 hours light; 65% humidity), the plants were sprayed with an aqueous spray solution derived from the formulation of the technical active ingredient in acetone/water (50:50) solution containing 0.5% Tween 20 (polyoxyethelyene sorbitan monolaurate, CAS RN 9005-64-5). The test plants were then grown in a glasshouse under controlled conditions (at 24/16° C., day/night; 14 hours light; 65% humidity) and watered twice daily. After 13 days, the test was evaluated (5=total damage to plant; 0=no damage to plant).

Abutilon theophrasti [2] = test: Pre-emergence herbicidal activity, ABUTH; set-up: key: 5=total damage to plant; 0=no damage to plant; details: 1000 g/Ha, pre-emergence spray, evaluated after 13 days, scale 0-5
Protocol: as §1

Setaria faberi [3] = test: Pre-emergence herbicidal activity, SETFA; set-up: key: 5=total damage to plant; 0=no damage to plant; details: 1000 g/Ha, pre-emergence spray, evaluated after 13 days, scale 0-5
Protocol: as §1

Echinochloa crus-galli [4] = test: Pre-emergence herbicidal activity, ECHCG; set-up: key: 5=total damage to plant; 0=no damage to plant; details: 1000 g/Ha, pre-emergence spray, evaluated after 13 days, scale 0-5
Protocol: as §1

Alopecurus myosuroides [5] = test: Pre-emergence herbicidal activity, ALOMY; details: 1000 g/Ha, pre-emergence spray, evaluated after 13 days, scale 0-5
Protocol: as §1

Zea mays [6] = test: Pre-emergence herbicidal activity, ZEAMX; details: 1000 g/Ha, pre-emergence spray, evaluated after 13 days, scale 0-5
Protocol: as §1

Amaranthus retroflexus [7] = test: Post-emergence herbicidal activity, AMARE; set-up: key: 5=total damage to plant; 0=no damage to plant; details: 1000 g/Ha, post-emergence spray (8 days cultivation), evaluated after 13 days, scale 0-5
Protocol: (§2) Seeds of a variety of test species were sown in standard soil in pots. After 8 days cultivation (post-emergence) under controlled conditions in a glasshouse (at 24/16° C., day/night; 14 hours light; 65% humidity), the plants were sprayed with an aqueous spray solution derived from the formulation of the technical active ingredient in acetone/water (50:50) solution containing 0.5% Tween 20 (polyoxyethelyene sorbitan monolaurate, CAS RN 9005-64-5). The test plants were then grown in a glasshouse under controlled conditions (at 24/16° C., day/night; 14 hours light; 65% humidity) and watered twice daily. After 13 days, the test was evaluated (5=total damage to plant; 0=no damage to plant).

Abutilon theophrasti [8] = test: Post-emergence herbicidal activity, ABUTH; set-up: key: 5=total damage to plant; 0=no damage to plant; details: 1000 g/Ha, post-emergence spray (8 days cultivation), evaluated after 13 days, scale 0-5
Protocol: as §2

Alopecurus myosuroides [9] = test: Post-emergence herbicidal activity, ALOMY; set-up: key: 5=total damage to plant; 0=no damage to plant; details: 1000 g/Ha, post-emergence spray (8 days cultivation), evaluated after 13 days, scale 0-5
Protocol: as §2

Echinochloa crus-galli [10] = test: Post-emergence herbicidal activity, ECHCG; set-up: key: 5=total damage to plant; 0=no damage to plant; details: 1000 g/Ha, post-emergence spray (8 days cultivation), evaluated after 13 days, scale 0-5
Protocol: as §2

Zea mays [11] = test: Post-emergence herbicidal activity, ZEAMX; set-up: key: 5=total damage to plant; 0=no damage to plant; details: 1000 g/Ha, post-emergence spray (8 days cultivation), evaluated after 13 days, scale 0-5
Protocol: as §2

Setaria faberi [12] = test: Post-emergence herbicidal activity, SETFA; set-up: key: 5=total damage to plant; 0=no damage to plant; details: 1000 g/Ha, post-emergence spray (8 days cultivation), evaluated after 13 days, scale 0-5
Protocol: as §2

CC1C(O)N(c2cc(C(C)(F)F)c(Cl)nn2)C(=O)N1C (stereo not drawn) [Example A11]
AMARE damage score, application pre-emergence (Amaranthus retroflexus [1]): 5 | ABUTH damage score, application pre-emergence (Abutilon theophrasti [2]): 5 | SETFA damage score, application pre-emergence (Setaria faberi [3]): 5 | ECHCG damage score, application pre-emergence (Echinochloa crus-galli [4]): 5 | ALOMY damage score, application pre-emergence (Alopecurus myosuroides [5]): 4 | ZEAMX damage score, application pre-emergence (Zea mays [6]): 4 | AMARE damage score, application post-emergence (Amaranthus retroflexus [7]): 5 | ABUTH damage score, application post-emergence (Abutilon theophrasti [8]): 5 | ALOMY damage score, application post-emergence (Alopecurus myosuroides [9]): 5 | ECHCG damage score, application post-emergence (Echinochloa crus-galli [10]): 5 | ZEAMX damage score, application post-emergence (Zea mays [11]): 5 | SETFA damage score, application post-emergence (Setaria faberi [12]): 5

CON1C(=O)N(c2cc(C(C)(C)F)c(Cl)nn2)C(O)C1C (stereo not drawn) [Example A6, 1-[6-chloro-5-(1-fluoro-1-methyl-ethyl)pyridazin-3-yl]-5-hydroxy-3-methoxy-4-methyl-imidazolidin-2-one]
AMARE damage score, application pre-emergence (Amaranthus retroflexus [1]): 5 | ABUTH damage score, application pre-emergence (Abutilon theophrasti [2]): 5 | SETFA damage score, application pre-emergence (Setaria faberi [3]): 4 | ECHCG damage score, application pre-emergence (Echinochloa crus-galli [4]): 4 | ALOMY damage score, application pre-emergence (Alopecurus myosuroides [5]): 3 | ZEAMX damage score, application pre-emergence (Zea mays [6]): 3 | AMARE damage score, application post-emergence (Amaranthus retroflexus [7]): 5 | ABUTH damage score, application post-emergence (Abutilon theophrasti [8]): 5 | ALOMY damage score, application post-emergence (Alopecurus myosuroides [9]): 4 | ECHCG damage score, application post-emergence (Echinochloa crus-galli [10]): 5 | ZEAMX damage score, application post-emergence (Zea mays [11]): 5 | SETFA damage score, application post-emergence (Setaria faberi [12]): 5

CCOC1C(O)N(c2cc(C(C)(C)F)c(Cl)nn2)C(=O)N1C (stereo not drawn) [Example A9, 1-[6-chloro-5-(1-fluoro-1-methyl-ethyl)pyridazin-3-yl]-4-ethoxy-5-hydroxy-3-methyl-imidazolidin-2-one]
AMARE damage score, application pre-emergence (Amaranthus retroflexus [1]): 5 | ABUTH damage score, application pre-emergence (Abutilon theophrasti [2]): 5 | SETFA damage score, application pre-emergence (Setaria faberi [3]): 5 | ECHCG damage score, application pre-emergence (Echinochloa crus-galli [4]): 5 | ALOMY damage score, application pre-emergence (Alopecurus myosuroides [5]): 4 | ZEAMX damage score, application pre-emergence (Zea mays [6]): 3 | AMARE damage score, application post-emergence (Amaranthus retroflexus [7]): 5 | ABUTH damage score, application post-emergence (Abutilon theophrasti [8]): 5 | ALOMY damage score, application post-emergence (Alopecurus myosuroides [9]): 5 | ECHCG damage score, application post-emergence (Echinochloa crus-galli [10]): 5 | ZEAMX damage score, application post-emergence (Zea mays [11]): 5 | SETFA damage score, application post-emergence (Setaria faberi [12]): 5

CON1C(=O)N(c2ccc(C(=O)NC(C)(C)C)nn2)C(O)C1C (stereo not drawn) [Example A14]
AMARE damage score, application pre-emergence (Amaranthus retroflexus [1]): 5 | ABUTH damage score, application pre-emergence (Abutilon theophrasti [2]): 5 | SETFA damage score, application pre-emergence (Setaria faberi [3]): 4 | ECHCG damage score, application pre-emergence (Echinochloa crus-galli [4]): 4 | ALOMY damage score, application pre-emergence (Alopecurus myosuroides [5]): 4 | ZEAMX damage score, application pre-emergence (Zea mays [6]): 2 | AMARE damage score, application post-emergence (Amaranthus retroflexus [7]): 5 | ABUTH damage score, application post-emergence (Abutilon theophrasti [8]): 5 | ALOMY damage score, application post-emergence (Alopecurus myosuroides [9]): 5 | ECHCG damage score, application post-emergence (Echinochloa crus-galli [10]): 5 | ZEAMX damage score, application post-emergence (Zea mays [11]): 5 | SETFA damage score, application post-emergence (Setaria faberi [12]): 5

COC1C(O)N(c2cc(C(C)(C)F)c(Cl)nn2)C(=O)N1C (stereo not drawn) [Example A8]
AMARE damage score, application pre-emergence (Amaranthus retroflexus [1]): 5 | ABUTH damage score, application pre-emergence (Abutilon theophrasti [2]): 5 | SETFA damage score, application pre-emergence (Setaria faberi [3]): 5 | ECHCG damage score, application pre-emergence (Echinochloa crus-galli [4]): 5 | ALOMY damage score, application pre-emergence (Alopecurus myosuroides [5]): 4 | ZEAMX damage score, application pre-emergence (Zea mays [6]): 3 | AMARE damage score, application post-emergence (Amaranthus retroflexus [7]): 5 | ABUTH damage score, application post-emergence (Abutilon theophrasti [8]): 5 | ALOMY damage score, application post-emergence (Alopecurus myosuroides [9]): 4 | ECHCG damage score, application post-emergence (Echinochloa crus-galli [10]): 5 | ZEAMX damage score, application post-emergence (Zea mays [11]): 4 | SETFA damage score, application post-emergence (Setaria faberi [12]): 5

CC1C(O)N(c2ccc(C(=O)NC(C)(C)C)nn2)C(=O)N1C (stereo not drawn) [Example A15]
AMARE damage score, application pre-emergence (Amaranthus retroflexus [1]): 5 | ABUTH damage score, application pre-emergence (Abutilon theophrasti [2]): 5 | SETFA damage score, application pre-emergence (Setaria faberi [3]): 4 | ECHCG damage score, application pre-emergence (Echinochloa crus-galli [4]): 5 | ALOMY damage score, application pre-emergence (Alopecurus myosuroides [5]): 4 | ZEAMX damage score, application pre-emergence (Zea mays [6]): 3 | AMARE damage score, application post-emergence (Amaranthus retroflexus [7]): 5 | ABUTH damage score, application post-emergence (Abutilon theophrasti [8]): 5 | ALOMY damage score, application post-emergence (Alopecurus myosuroides [9]): 5 | ECHCG damage score, application post-emergence (Echinochloa crus-galli [10]): 5 | ZEAMX damage score, application post-emergence (Zea mays [11]): 5 | SETFA damage score, application post-emergence (Setaria faberi [12]): 5

CCOC1C(O)N(c2cc(C(C)(F)F)c(Cl)nn2)C(=O)N1C (stereo not drawn) [Example A10]
AMARE damage score, application pre-emergence (Amaranthus retroflexus [1]): 5 | ABUTH damage score, application pre-emergence (Abutilon theophrasti [2]): 5 | SETFA damage score, application pre-emergence (Setaria faberi [3]): 5 | ECHCG damage score, application pre-emergence (Echinochloa crus-galli [4]): 4 | ALOMY damage score, application pre-emergence (Alopecurus myosuroides [5]): 4 | ZEAMX damage score, application pre-emergence (Zea mays [6]): 4 | AMARE damage score, application post-emergence (Amaranthus retroflexus [7]): 5 | ABUTH damage score, application post-emergence (Abutilon theophrasti [8]): 5 | ALOMY damage score, application post-emergence (Alopecurus myosuroides [9]): 5 | ECHCG damage score, application post-emergence (Echinochloa crus-galli [10]): 5 | ZEAMX damage score, application post-emergence (Zea mays [11]): 4 | SETFA damage score, application post-emergence (Setaria faberi [12]): 5

CN1CC(O)N(c2cc(C(F)(F)F)cnn2)C1=O (stereo not drawn) [Example A7, 4-hydroxy-1-methyl-3-[5-(trifluoromethyl)pyridazin-3-yl]imidazolidin-2-one]
AMARE damage score, application pre-emergence (Amaranthus retroflexus [1]): 5 | ABUTH damage score, application pre-emergence (Abutilon theophrasti [2]): 5 | SETFA damage score, application pre-emergence (Setaria faberi [3]): 5 | ECHCG damage score, application pre-emergence (Echinochloa crus-galli [4]): 5 | ALOMY damage score, application pre-emergence (Alopecurus myosuroides [5]): 4 | ZEAMX damage score, application pre-emergence (Zea mays [6]): 2 | AMARE damage score, application post-emergence (Amaranthus retroflexus [7]): 5 | ABUTH damage score, application post-emergence (Abutilon theophrasti [8]): 5 | ALOMY damage score, application post-emergence (Alopecurus myosuroides [9]): 5 | ECHCG damage score, application post-emergence (Echinochloa crus-galli [10]): 5 | ZEAMX damage score, application post-emergence (Zea mays [11]): 5 | SETFA damage score, application post-emergence (Setaria faberi [12]): 5
